The term IC50 denotes the concentration at which inhibition is half-maximal.

This test addresses T1, human CXCR2 receptor (Homo sapiens, UniProt P25025).
T1 construct: purchased Biosignal Packard Inc; host or cells: Chinese hamster ovary cell (CHO-K1) membranes
T1 sequence (P25025 1-360): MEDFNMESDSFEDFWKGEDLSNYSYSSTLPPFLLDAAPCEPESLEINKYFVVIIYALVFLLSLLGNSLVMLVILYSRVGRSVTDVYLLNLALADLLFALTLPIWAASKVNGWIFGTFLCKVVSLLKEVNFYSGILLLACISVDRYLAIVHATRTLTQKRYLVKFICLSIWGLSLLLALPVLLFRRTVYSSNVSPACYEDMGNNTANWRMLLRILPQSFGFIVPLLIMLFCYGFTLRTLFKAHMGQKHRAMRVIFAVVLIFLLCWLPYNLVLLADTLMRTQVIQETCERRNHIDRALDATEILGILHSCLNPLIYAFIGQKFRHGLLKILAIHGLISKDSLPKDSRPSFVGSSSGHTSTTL
Kind of test: [35S]-GTPγS binding assay for human CXCR2 receptor using SPA technology. The class given is biochemical. The conditions noted are these: CHO-K1 membranes expressing human CXCR2; 100 nM IL-8 stimulation.

Method: The assay is performed in duplicate in 96 well Optiplate™ microplate in a final volume of 250 μl per well. Compounds are diluted in DMSO (0.5% final concentration) and incubated in 20 mM HEPES buffer pH 7.4 containing 10 mM MgCl2, 100 mM NaCl, 1 mM EDTA plus 100 nM IL-8, 50 μM GDP and 500 μM [^35S]GTPγS per well. SPA beads (1 mg/well final concentration) were pre-mixed with the membranes (10 μg/well final concentration) in assay buffer: 20 mM HEPES buffer pH 7.4 containing 10 mM MgCl2, 100 mM NaCl, 1 mM EDTA. The bead membrane mixture is added to each well, plates are sealed and incubated at room temperature for 60 minutes. The plate is centrifuged and read on Packard TopCount™ scintillation counter, program [^35S dpm] for 1 min/well. Data are expressed as the % response to 100 nM IL-8 minus basal.

Consider `CCc1nc2nc(CSc3cccc(F)c3F)cc(O)n2n1` [Example 4], for which the IC50 came out at 2400 nM. This lies in the single-digit micromolar range.

For the origin of these results see patent US20100069407A1, “CXCR2 inhibitors” (priority 2006, published 2010).
